In paper PMC10016038, “Enhanced Endosomal Signaling and Desensitization of GLP-1R vs GIPR in Pancreatic Beta Cells” (Endocrinology, 2023):

How the values were obtained:
[1] = test system: INS-1 832/3 GLP-1R KO cells; assay: Insulin secretion assay, GLP-1R KO cells; type: cell-based, rat; conditions: 100 nM, 11 mM glucose; n = 5
Method: At the end of the treatments, the supernatant containing the secreted insulin was collected, centrifuged at 1000g for 3 minutes, and transferred to a fresh tube. To determine total insulin content, cells were lysed using KRBH buffer + 1% w/v BSA + 1% v/v Triton X-100 (Sigma). The lysates were sonicated 3 × 10 seconds in a water bath sonicator and centrifuged at 10 000g for 10 minutes, and the supernatants collected. The samples were stored at −20 °C until the insulin concentration was determined using an Insulin Ultra-Sensitive HTRF Assay kit (62IN2PEG, Cisbio, Codolet, France) according to the manufacturer's instructions.
Figure 7. Functional analysis of GLP-1R vs GIPR signaling in beta cells. […] Data are mean ± SEM, compared by paired t tests; *P < .05; ns, nonsignificant.

SNAP-tagged human GIPR [2] = assay: RICS receptor diffusion / clustering, SNAP-GIPR; type: cell-based; conditions: 5 minutes, 100 nM; n = 4
SNAP-GIPR = assay: Nb37 bystander NanoBiT, endosome (Endofin), GIPR; type: cell-based, human; conditions: Endofin-LgBiT, n = 4
Source text: The Nb37 assay constructs were kindly provided by Prof. Asuka Inoue, Tohoku University, Japan. Nb37 (gene synthesized by GenScript with codon optimization) was C-terminally fused to SmBiT with a 15 amino acid flexible linker ([…]), and the resulting construct referred to as Nb37-SmBiT. The C-terminal KRAS CAAX motif ([…]) was N-terminally fused with LgBiT (LgBiT-CAAX). The Endofin FYVE domain (amino acid region Gln739-Lys806) was C-terminally fused with LgBiT (Endofin-LgBiT). Gαs (human, short isoform), Gβ1 (human), Gγ2 (human), and RIC8B (human, isoform 2) plasmids were inserted into pcDNA3.1 or pCAGGS expression plasmid vectors. INS-1 832/3 GLP-1R KO or GIPR KO cells were seeded in 6-well plates and co-transfected with 0.1 μg SNAP-GLP-1R or SNAP-GIPR, 0.5 μg Gαs, Gβ1, and Gγ2, 0.1 μg RIC8B, 0.1 μg CAAX-LgBiT or 0.5 μg Endofin-LgBiT with 0.1 μg or 0.5 μg Nb37-SmBiT, respectively, with 0.8 µg pcDNA3.1 added to the former to equalize DNA content.
All NanoBiT and NanoBRET readings were obtained in a Flexstation 3 plate reader. […] Readings were normalized to well baseline and then to average vehicle-induced signal to establish the agonist-induced effect. AUCs from response curves were calculated for each agonist concentration and fitted to four-parameter curves using Prism 9 (GraphPad). […]

[3] = test system: calcium response in purified WT mouse islets; assay: Calcium assay, WT mouse islets; type: cell-based; conditions: Cal-520 AM; 100 nM; n = 4
Method: Nondiabetic mice of both sexes were used for islet isolation. Briefly, pancreata were infused via the common bile duct with RPMI-1640 medium containing 1 mg/mL collagenase from Clostridium histolyticum (Nordmark Biochemicals), dissected, and incubated in a water bath at 37 °C for 10 minutes. Islets were subsequently washed and purified using a Histopaque gradient (Histopaque-1119, 11191, Sigma-Aldrich, and Histopaque-1083, 10831, Sigma-Aldrich). Isolated islets were allowed to recover overnight at 37 °C in 5% CO2 in RPMI-1640 supplemented with 10% FBS and 1% penicillin/streptomycin. […]
Imaging of INS-1 832/3 cells or whole-islet Ca^2+ dynamics was performed as follows: cells or Matrigel-encased islets from individual animals were loaded with the Ca^2+ responsive dye Cal-520 AM (AAT Bioquest), pre-incubated for 1 hour in KRBH G6, and imaged in MatTek glass bottom dishes every 6 second at 488 nm using a Nikon Eclipse Ti microscope with an ORCA-Flash 4.0 camera (Hamamatsu) and Metamorph software (Molecular Devices) while maintained at 37 °C on a heated stage. Raw fluorescence intensity traces from cell-occupied areas or islet ROIs were extracted using Fiji. Responses were plotted relative to the average fluorescence intensity during the 6 mM glucose baseline period, before agonist addition. […]

GIPR-NanoLuc = assay: KRAS-Venus bystander NanoBRET (plasma membrane), GIPR; type: cell-based; conditions: n = 5
Source text: GLP-1R-NanoLuc was generated in house by polymerase chain reaction (PCR) cloning of the NanoLuciferase sequence from pcDNA3.1-ccdB-NanoLuc (a gift from Prof. Mikko Taipale; Addgene plasmid # 87067) onto the C-terminus end of the SNAP-GLP-1R vector (CisBio), followed by site-directed mutagenesis of the GLP-1R stop codon. GIPR-NanoLuc was subsequently cloned in house by exchanging the GLP-1R for the GIPR in the GLP-1R-NanoLuc construct. KRAS- and Rab5-Venus plasmids were a gift from Prof. Kevin Pfleger, University of Western Australia. The INS-1 832/3 GLP-1R KO and GIPR KO cells were seeded in 12-well plates and co-transfected with 0.2 µg KRAS-Venus and 0.1 µg GLP-1R- or GIPR-NanoLuc, respectively, or 0.5 µg Rab5-Venus and 0.1 µg GLP-1R- or GIPR-NanoLuc, respectively.
All NanoBiT and NanoBRET readings were obtained in a Flexstation 3 plate reader. Briefly, 24 hours after transfection, cells were detached, resuspended in NanoGlo Live Cell Reagent (Promega) with furimazine (1:20 dilution) and seeded into white 96-well half-area plates. […] Readings were normalized to well baseline and then to average vehicle-induced signal to establish the agonist-induced effect. AUCs from response curves were calculated for each agonist concentration and fitted to four-parameter curves using Prism 9 (GraphPad).
Figure 2. Endosomal vs plasma membrane localization of GLP-1R compared with GIPR in beta cells. […] Data are mean ± SEM, compared by paired t tests or two-way ANOVA with Sidak's test; *P < .05.

SNAP-tagged human GIPR [4] = assay: Colocalization with SNX27-GFP, SNAP-GIPR; type: cell-based; conditions: 3 hours stimulation with 100 nM
SNAP-tagged human GLP-1R [5] = target: T1, SNAP-tagged human GLP-1R (Homo sapiens, UniProt P43220); assay: DERET internalization assay, INS-1 832/3 SNAP-GLP-1R cells; type: cell-based; conditions: non-cognate agonist GIP
T1 sequence (P43220 24-463): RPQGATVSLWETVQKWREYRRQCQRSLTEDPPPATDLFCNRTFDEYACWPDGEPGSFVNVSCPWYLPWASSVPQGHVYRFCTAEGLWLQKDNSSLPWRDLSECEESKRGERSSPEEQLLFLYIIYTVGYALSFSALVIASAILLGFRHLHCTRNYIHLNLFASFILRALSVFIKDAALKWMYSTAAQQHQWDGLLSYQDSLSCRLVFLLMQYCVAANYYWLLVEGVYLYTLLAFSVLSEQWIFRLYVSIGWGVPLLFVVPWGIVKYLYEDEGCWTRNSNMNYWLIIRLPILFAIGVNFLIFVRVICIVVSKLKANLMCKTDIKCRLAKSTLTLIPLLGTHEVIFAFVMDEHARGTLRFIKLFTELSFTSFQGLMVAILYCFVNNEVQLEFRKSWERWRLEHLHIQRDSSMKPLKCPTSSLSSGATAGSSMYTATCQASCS

SNAP-tagged human GLP-1R [6] = target: T1, SNAP-tagged human GLP-1R; assay: TR-FRET receptor clustering, SNAP-GLP-1R; type: cell-based; conditions: 100 nM, 37 °C, n = 4

Substance | Insulin secretion response in GLP-1R KO cells [1] | GIPR diffusion (RICS) upon stimulation (SNAP-tagged human GIPR [2]) | GIPR endosomal activity, Emax response vs GLP-1R (SNAP-GIPR) | GIPR potency for endosomal signaling vs GLP-1R (SNAP-GIPR) | Calcium influx, GIP vs GLP-1, primary islets [3] | Plasma membrane retention of GIPR compared with GLP-1R (GIPR-NanoLuc; INS-1 832/3 KO cells) | Maximal internalization response (Emax), GIPR vs GLP-1R (GIPR-NanoLuc) | Potency (logEC50), GIPR vs GLP-1R (GIPR-NanoLuc) | SNAP-GIPR colocalization with SNX27 (SNAP-tagged human GIPR [4]) | GLP-1R internalization (SNAP-tagged human GLP-1R [5]) | GLP-1R clustering (SNAP-tagged human GLP-1R [6])
GLP-1(7-36)NH2 | abolished | – | – | – | – | – | – | – | – | – | –
GIP(1-42) | – | marked slowing of diffusion | profoundly reduced | increased potency | significant increase | increased propensity for plasma membrane retention | reduced maximal internalization responses | no changes in potency | sustained | negligible | not detectable
